According to US5164411A, “Pyrethroid compositions” (priority 1991, dated 1992):

Assays:
[1] = system: rainbow trout (Oncorhynchus mykiss); assay: Ninety-six-hour flow-through acute toxicity, rainbow trout; type: in vivo
Description: (§1) Ninety-six-hour flow-through acute toxicity studies of both cypermethrin and sigma-cypermethrin were conducted in the rainbow trout (Oncorhynchus mykiss) and in the sheepshead minnow (Cyprinodon variagatus) to determine the median-lethal-concentration (LC50) resulting from continuous exposure. For the rainbow trout the exposure medium was well water; for the sheepshead minnow, filtered seawater. Each group of 20 fish (10 per replicate aquarium) was exposed either to one of five concentrations of pyrethroid delivered in a diluter system in dimethylformamide (DMF), to 30 μL/L DMF in the exposure medium (solvent control), or to the exposure medium alone (control). Observations for mortality, morbidity, and other overt signs of toxicity were determined at prescribed intervals. Concentrations of the test materials were measured at the beginning and end of the exposure using a validated HPLC method. The cypermethrin isomer content (weight %) of the sigma-cypermethrin technical product used in this study was total isomers--88.2%, S-isomers--82%, cis/trans ratio--53/47.

[2] = system: sheepshead minnow (Cyprinodon variagatus); assay: Ninety-six-hour flow-through acute toxicity, sheepshead minnow; type: in vivo
Description: as §1

[3] = system: mammals and certain species of fish; assay: Mammalian toxicology and fish toxicity, summary of the tests; type: in vivo, rat; fish; settings: at rates giving commercial control of target crop insects
Description: In the 90-day feeding study, conducted in compliance with EPA guideline 82-1, the compound under test was administered continuously in the diet to groups of rats for at least ninety days at concentrations of 0, 150, and 1500 ppm to groups of fifteen Sprague-Dawley rats for cypermethrin and 0, 10, 50, 150, 250, 500, and 900 ppm to groups of ten Fisher 344 rats for sigma-cypermethrin. (The rates for sigma-cypermethrin were lower, because it was expected to be more toxic than cypermethrin.) The cypermethrin isomer content (weight %) of the sigma-cypermethrin technical product used in this study was total isomers--88.2%, S-isomers--82%, cis/trans ratio--53/47. Individual body weight and food consumption values were recorded weekly. At termination, hematology and clinical chemistry determinations were conducted and organ weights were obtained for adrenals, brain, heart, kidneys, liver, and ovaries or testes. […]
Multigeneration studies were conducted in compliance with EPA guideline 83-4 and provide information on reproductive parameters as well as neonatal morbidity and mortality for multiple generations. […] Body weights and food consumption were recorded at regular intervals. […]

Lepidoptera = assay: Foliar evaluation, average over Lepidoptera; type: in vivo; settings: laboratory
Description: (§2) Cypermethrin and sigma-cypermethrin were tested by foliar application at various concentrations in aqueous solutions containing 9.75% acetone and 0.25% octylphenoxypolyethoxyethanol. Insect species utilized included the cabbage looper (Trichoplusia ni), southern armyworm (Spodoptera eridania), Mexican bean beetle (Epilachna varivestis), tobacco budworm (Heliothis virescens), and corn earworm (Heliothis zea).
(§3) For all insects, pinto beans (Phaseolus vulgaris) plants were treated with the test solutions. The test solutions were applied with a sprayer to the upper and lower surfaces of the plant leaves to runoff. The plants were then allowed to dry and were severed at the base of the stem before being placed in cups. Ten second instar individuals of the appropriate insect species, except the tobacco budworm and corn earworm, were placed in each cup and the cup covered. Tests with the tobacco budworm and corn earworm used four replicates with each replicate containing five second instar insects. In all tests, mortality was read 48 hours later. The sigma-cypermethrin used in the foliar evaluations was the product of Example 2.

certain insect species = assay: Insecticidal activity, overall statement; type: in vivo
Description: as §2, §3

target crop insects = assay: Field trials, overall statement; type: in vivo; settings: at half the rate of cypermethrin, or even lower
Text: Field trials conducted on cotton in Louisiana, Mississippi, Alabama, and Arizona consisted of a randomized complete block design of four replications per treatment. Plots were a minimum of 0.2 acres, and all applications were by commercial ground equipment with a minimum of 10 gallons total spray solution per acre. The cypermethrin isomer content (weight %) of the several sigma-cypermethrin technical products used in the field trials were as follows:
Analysis of the data was based on a seasonal average of multiple evaluations taken over a four to six week period (3-4 applications) in trials for control of Heliothis sp.
Field trials conducted on lettuce in California for evaluation of the control of cabbage looper consisted of a randomized complete block design of four replications per treatment. Applications were made to small plots with CO2 backpack sprayer using a minimum of 10 gallons per acre. Results were converted to percent control based on untreated check plots.
Field trials were conducted in Louisiana, North Carolina, Texas, Kentucky, Tennessee, and Illinois to evaluate the control of alfalfa weevil (Hypera postica). Small plot trials were used in a randomized block design with four replications per treatment. Applications were made with CO2 backpack sprayers. […]

CC1(C)C(C=C(Cl)Cl)C1C(=O)O[C@H](C#N)c1cccc(Oc2ccccc2)c1 (mixture of isomers) [sigma-cypermethrin, (S)(cyano)(3-phenoxyphenyl)methyl cis/trans-3-(2,2-dichloroethenyl)-2,2-dimethylcyclopropanecarboxylate]
ratio of the cypermethrin LC50 to the sigma-cypermethrin LC50 [1]: 1.3
ratio of the cypermethrin LC50 to the sigma-cypermethrin LC50 [2]: 1.64
toxicity relative to cypermethrin [3]: significantly less toxic to mammals and certain species of fish
average effectiveness relative to cypermethrin (Lepidoptera): 1.9 times
effectiveness relative to cypermethrin (certain insect species): twice as effective as cypermethrin
field results relative to cypermethrin (target crop insects): generally gave results essentially equivalent to that obtained with cypermethrin applied at the recommended rate
